One experiment deals with human CB2 receptor (Homo sapiens (Human), UniProt P34972). Nature of the experiment: CB2 receptor binding assay ([3H]CP-55,940 displacement, HEK-293 membranes). As to the method: The compounds were evaluated in CB1R and CB2R binding assays using membranes from HEK-293 cells transfected with cDNAs encoding the human recombinant CB1R (Bmax=[…] protein) and human recombinant CB2R (Bmax=[…] protein) (Perkin-Elmer). […] Compounds were tested following the procedure described by the cell membrane manufacturer. […] CB2R binding assays were carried out with two different buffers: incubation buffer (Tris-HCl, 50 mM; MgCl2, 5 mM; CaCl2 1 mM; BSA, 0.2% at pH 7.4) and washing buffer (Tris-HCl, 50 mM; NaCl 500 mM; BSA, 0.1% at pH 7.4). […] Assays were performed in duplicate and incubated for […] at 37° C. […] Data are analyzed and IC50 is calculated using GraphPad Prism 5 and the model “log(inhibitor) vs. response—Variable slope”. The binding affinity of the compounds is Determined by Using the Cheng and Prusoff Equation Ki=IC50/(1+[radioligand]/Kd).

The target of a further experiment is human recombinant CB1R (Homo sapiens (Human), UniProt P21554). Nature of the experiment: CB1 receptor binding assay ([3H]CP-55,940 displacement, HEK-293 membranes). As to the method:
The compounds were evaluated in CB1R and CB2R binding assays using membranes from HEK-293 cells transfected with cDNAs encoding the human recombinant CB1R (Bmax=[…] protein) and human recombinant CB2R (Bmax=[…] protein) (Perkin-Elmer). […]. Compounds were tested following the procedure described by the cell membrane manufacturer. […] CB2R binding assays were carried out with two different buffers: incubation buffer (Tris-HCl, 50 mM; MgCl2, 5 mM; CaCl2 1 mM; BSA, 0.2% at pH 7.4) and washing buffer (Tris-HCl, 50 mM; NaCl 500 mM; BSA, 0.1% at pH 7.4). […] Assays were performed in duplicate and incubated for […] at 37° C. After the incubation, the assay mixture is filtered through 96 GF/C filter plates (Perkin Elmer #6005174) using Perkin Elmer Filtermate Harvester, and then washed four times with ice-cold washing buffer. The filters are dried for 1 hour at 50° C. and [^3H] trapped on filter counted for radioactivity in Perkin Elmer Microscint 20 cocktail (#6013329) using Perkin Elmer MicroBeta2 Reader. […] Data are analyzed and IC50 is calculated using GraphPad Prism 5 and the model “log(inhibitor) vs. response—Variable slope”. The binding affinity of the compounds is Determined by Using the Cheng and Prusoff Equation Ki=IC50/(1+[radioligand]/Kd).

Where [1] appears, read: membranes of HEK-293 cells with human recombinant CB2R, [3H]CP-55,940, read-out: CB2 IC50.
[2] abbreviates: membranes of HEK-293 cells with human recombinant CB1R, [3H]CP-55,940, read-out: CB1 IC50.
[3] abbreviates: membranes of HEK-293 cells with human recombinant CB2R, [3H]CP-55,940, class symbols, read-out: CB2 IC50.
Setting [4] is: membranes of HEK-293 cells with human recombinant CB1R, [3H]CP-55,940, class symbols, read-out: CB1 IC50.

Read-outs that look alike come from different tables or passages of the source.

Chain of human recombinant CB1R (P21554 whole entry): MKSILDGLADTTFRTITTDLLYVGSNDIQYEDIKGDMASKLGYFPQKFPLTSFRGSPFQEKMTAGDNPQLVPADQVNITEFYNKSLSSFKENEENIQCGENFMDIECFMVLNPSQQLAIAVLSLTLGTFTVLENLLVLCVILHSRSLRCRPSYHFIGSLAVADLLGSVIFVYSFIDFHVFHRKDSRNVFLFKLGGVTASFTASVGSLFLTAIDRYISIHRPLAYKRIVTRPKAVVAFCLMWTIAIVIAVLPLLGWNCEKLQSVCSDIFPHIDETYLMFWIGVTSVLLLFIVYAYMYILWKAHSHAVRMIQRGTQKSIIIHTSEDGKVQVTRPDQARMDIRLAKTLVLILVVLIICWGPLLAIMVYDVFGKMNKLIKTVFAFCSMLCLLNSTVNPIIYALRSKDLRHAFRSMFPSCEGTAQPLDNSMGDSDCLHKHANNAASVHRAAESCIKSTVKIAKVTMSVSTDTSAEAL
Chain of human CB2 receptor (P34972 whole entry): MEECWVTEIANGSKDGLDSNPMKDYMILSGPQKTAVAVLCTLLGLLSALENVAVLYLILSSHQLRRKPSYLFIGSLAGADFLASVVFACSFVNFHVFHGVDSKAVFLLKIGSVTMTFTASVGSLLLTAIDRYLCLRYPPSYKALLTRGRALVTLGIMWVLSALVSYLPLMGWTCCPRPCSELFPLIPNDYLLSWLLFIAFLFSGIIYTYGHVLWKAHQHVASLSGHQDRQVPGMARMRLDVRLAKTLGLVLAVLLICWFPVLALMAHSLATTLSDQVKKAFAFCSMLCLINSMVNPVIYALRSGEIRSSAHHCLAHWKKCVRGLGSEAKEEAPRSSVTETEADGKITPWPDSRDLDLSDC

`COc1ccc(-c2cnc3c(c2)cc(C(=O)NC2CCC(F)(F)CC2)c(=O)n3CCN2CCOCC2)cc1` [Compound 27, N-(4,4-difluorocyclohexyl)-6-(4-methoxyphenyl)-1-(2-morpholinoethyl)-2-oxo-1,2-dihydro-1,8-naphthyridine-3-carboxamide]: the IC50 on human CB2 receptor (setting [1]) is 2 nM; at human recombinant CB1R (setting [2]), over 10000 nM.
For `O=C(NC12CC(C1)C2)c1c(O)c2cc(-c3ccncc3)cnc2n(CCN2CCOCC2)c1=O` [Compound 124, N-(bicyclo[1.1.1]pentan-1-yl)-4-hydroxy-1-(2-morpholinoethyl)-2-oxo-6-(pyridin-4-yl)-1,2-dihydro-1,8-naphthyridine-3-carboxamide], the IC50 on human CB2 receptor (setting [3]) and at human recombinant CB1R (setting [4]) was over 1000 nM throughout.
For the compound `C[C@H]1CC[C@@H](NC(=O)c2c(O)c3cc(-c4ccc(F)cc4)cnc3n(CCN3CCOCC3)c2=O)CC1` [Compound 109, 6-(4-fluorophenyl)-4-hydroxy-N-((1s, 4s)-4-methylcyclohexyl)-1-(2-morpholinoethyl)-2-oxo-1,2-dihydro-1,8-naphthyridine-3-carboxamide], the IC50 on human CB2 receptor (setting [3]) is under 100 nM; on human recombinant CB1R (setting [4]), over 1000 nM.
Taken in the same sequence, the figures for `O=C(NC1CC2(CCC2)C1)c1c(O)c2cccnc2n(CCN2CCOCC2)c1=O` [Compound 135, 4-hydroxy-2-oxo-1-(2-morpholinoethyl)-N-(spiro[3.3]heptan-2-yl)-1,2-dihydro-1,8-naphthyridine-3-carboxamide] were under 100 nM and over 1000 nM.
`CC(NC(=O)c1cc2cc(-c3ccc(C#N)cn3)cnc2n(CC(C)(C)N2CCOCC2)c1=O)c1ccc(F)cc1` (centres unmarked) [Compound 56, 6-(5-cyanopyridin-2-yl)-N-(1-(4-fluorophenyl)ethyl)-1-(2-methyl-2-morpholinopropyl)-2-oxo-1,2-dihydro-1,8-naphthyridine-3-carboxamide]: the IC50 on human CB2 receptor (setting [3]) was under 100 nM; at human recombinant CB1R (setting [4]), over 1000 nM.
Consider `COc1ccc(-c2cnc3c(c2)c(O)c(C(=O)N[C@H]2CC[C@H](C)CC2)c(=O)n3CCN2CCOCC2)cc1` [Compound 148, 4-hydroxy-6-(4-methoxyphenyl)-N-((1R,4R)-4-methylcyclohexyl)-1-(2-morpholinoethyl)-2-oxo-1,2-dihydro-1,8-naphthyridine-3-carboxamide], for which the IC50 on human CB2 receptor (setting [3]) and at human recombinant CB1R (setting [4]) was over 1000 nM in each case.
Turning to `O=C(NC1CC2(CCC2)C1)c1cc2cc(-c3ccncn3)cnc2n(CCN2CCOCC2)c1=O` [Compound 35, 1-(2-morpholinoethyl)-2-oxo-6-(pyrimidin-4-yl)-N-(spiro[3.3]heptan-2-yl)-1,2-dihydro-1,8-naphthyridine-3-carboxamide], the IC50 on human CB2 receptor (setting [1]) worked out at 7.5 nM; on human recombinant CB1R (setting [2]), 358 nM.
Consider `C[C@H]1CC[C@@H](NC(=O)c2c(O)c3cc(-c4ccc(F)cc4)ccc3n(CCN3CCOCC3)c2=O)CC1` [Compound 159, 6-(4-fluorophenyl)-4-hydroxy-N-((1s,4S)-4-methylcyclohexyl)-1-(2-morpholinoethyl)-2-oxo-1,2-dihydroquinoline-3-carboxamide], for which the IC50 on human CB2 receptor (setting [3]) was under 100 nM; on human recombinant CB1R, 100 to 999 nM.
As to `O=C(NC12CC(C1)C2)c1c(O)c2cc(-c3ccc(F)cc3)cnc2n(CCN2CCC(F)CC2)c1=O` [Compound 133, N-(bicyclo[1.1.1]pentan-1-yl)-6-(4-fluorophenyl)-4-hydroxy-2-oxo-1-(2-(4-fluoropiperidin-1-yl)ethyl)-1,2-dihydro-1,8-naphthyridine-3-carboxamide], the IC50 is 100 to 999 nM on human CB2 receptor and over 1000 nM at human recombinant CB1R (setting [4]).
As for `O=C(Nc1ccccn1)c1cc2cc(Br)cnc2n(Cc2ccc(F)cc2)c1=O` [Compound 70, 6-bromo-1-(4-fluorobenzyl)-2-oxo-N-(pyridin-2-yl)-1,2-dihydro-1,8-naphthyridine-3-carboxamide], the IC50 is under 100 nM at human CB2 receptor (setting [3]) and over 1000 nM on human recombinant CB1R (setting [4]).
With `O=C(NC12CC(C1)C2)c1c(O)c2cc(-c3cccnc3)cnc2n(CCN2CCOCC2)c1=O` [Compound 123, N-(bicyclo[1.1.1]pentan-1-yl)-4-hydroxy-1-(2-morpholinoethyl)-2-oxo-6-(pyridin-3-yl)-1,2-dihydro-1,8-naphthyridine-3-carboxamide], the IC50 on human CB2 receptor (setting [3]) and on human recombinant CB1R (setting [4]) was over 1000 nM throughout.
For `Cc1ccc(NC(=O)c2cc3cc(Br)cnc3n(Cc3ccc(F)cc3)c2=O)cc1` [Compound 71, 6-bromo-1-(4-fluorobenzyl)-2-oxo-N-(p-tolyl)-1,2-dihydro-1,8-naphthyridine-3-carboxamide], the IC50 at human CB2 receptor (setting [3]) and at human recombinant CB1R (setting [4]) was over 1000 nM throughout.
Consider `Cc1c(C(=O)NC2CC3(CCC3)C2)c(=O)n(Cc2ccc(F)cc2)c2ncc(Br)cc12` [Compound 76, 6-bromo-1-(4-fluorobenzyl)-4-methyl-2-oxo-N-(spiro[3.3]heptan-2-yl)-1,2-dihydro-1,8-naphthyridine-3-carboxamide], for which the results for the IC50 on human CB2 receptor (setting [3]) and at human recombinant CB1R (setting [4]) were under 100 nM and over 1000 nM, respectively.
In the case of `CC1CCC(NC(=O)c2c(O)c3cc(-c4ccc(OC(C)C)cc4)cnc3n(CCN3CCOCC3)c2=O)CC1` (centres unmarked) [Compound 18, 4-hydroxy-6-(4-isopropoxyphenyl)-N-(4-methylcyclohexyl)-1-(2-morpholinoethyl)-2-oxo-1,2-dihydro-1,8-naphthyridine-3-carboxamide], the IC50 at human CB2 receptor (setting [3]) and on human recombinant CB1R (setting [4]) was over 1000 nM in each case.
As to `O=C(NC12CC(C1)C2)c1c(O)c2cc(C3=CCCC3)cnc2n(CCN2CCOCC2)c1=O` [Compound 125, N-(bicyclo[1.1.1]pentan-1-yl)-6-(cyclopent-1-en-1-yl)-4-hydroxy-1-(2-morpholinoethyl)-2-oxo-1,2-dihydro-1,8-naphthyridine-3-carboxamide], the figures for the IC50 on human CB2 receptor and at human recombinant CB1R (setting [4]) were 100 to 999 nM and over 1000 nM, respectively.
For the compound `CC(NC(=O)c1c(O)c2cc(Br)cnc2n(Cc2ccc(F)cc2)c1=O)c1ccc(C#N)cc1` (centres unmarked) [Compound 3, 6-bromo-N-(1-(4-cyanophenyl)ethyl)-1-(4-fluorobenzyl)-4-hydroxy-2-oxo-1,2-dihydro-1,8-naphthyridine-3-carboxamide], the IC50 was 100 to 999 nM at human CB2 receptor and over 1000 nM on human recombinant CB1R (setting [4]).
`O=C(NC1(CO)CCCCC1)c1c(O)c2cccnc2n(Cc2ccc(F)cc2)c1=O` [Compound 145, 1-[(4-fluorophenyl)methyl]-4-hydroxy-N-[1-(hydroxymethyl)cyclohexyl]-2-oxo-1,8-naphthyridine-3-carboxamide]: the IC50 at human CB2 receptor (setting [3]) is under 100 nM; on human recombinant CB1R (setting [4]), over 1000 nM.
Regarding `Cc1c(C(=O)NC2CC3(CCC3)C2)c(=O)n(Cc2cccc(C#N)c2)c2ncc(Br)cc12` [Compound 78, 6-bromo-1-(3-cyanobenzyl)-4-methyl-2-oxo-N-(spiro[3.3]heptan-2-yl)-1,2-dihydro-1,8-naphthyridine-3-carboxamide], the IC50 on human CB2 receptor is 100 to 999 nM; at human recombinant CB1R (setting [4]), over 1000 nM.
For the compound `COc1ccc(-c2cnc3c(c2)c(O)c(C(=O)N[C@H](C)c2ccc(F)cc2)c(=O)n3CCN2CCOCC2)cc1` [Compound 150, (R)—N-(1-(4-fluorophenyl)ethyl)-4-hydroxy-6-(4-methoxyphenyl)-1-(2-morpholinoethyl)-2-oxo-1,2-dihydro-1,8-naphthyridine-3-carboxamide], the IC50 was 100 to 999 nM on human CB2 receptor and over 1000 nM at human recombinant CB1R (setting [4]).
Consider `O=C(NC12CCC(C1)C2)c1c(O)c2cc(-c3ccc(F)cc3)cnc2n(CCN2CCOCC2)c1=O` [Compound 115, N-(bicyclo[2.1.1]hexan-1-yl)-6-(4-fluorophenyl)-4-hydroxy-1-(2-morpholinoethyl)-2-oxo-1,2-dihydro-1,8-naphthyridine-3-carboxamide], for which the figures for the IC50 at human CB2 receptor (setting [1]) and on human recombinant CB1R (setting [2]) were 29 nM and 552 nM, respectively.
Take `O=C(NC12CC(C1)C2)c1c(O)c2cc(-c3ccc(OC(F)F)cc3)cnc2n(CCN2CCOCC2)c1=O` [Compound 12, N-(bicyclo[1.1.1]pentan-1-yl)-6-(4-(difluoromethoxy)phenyl)-4-hydroxy-1-(2-morpholinoethyl)-2-oxo-1,2-dihydro-1,8-naphthyridine-3-carboxamide]: the IC50 at human CB2 receptor (setting [3]) and at human recombinant CB1R (setting [4]) was over 1000 nM throughout.
Consider `C[C@@H](NC(=O)c1cc2cc(Br)cnc2n(Cc2ccc(C#N)cc2)c1=O)c1ccc(F)cc1` [Compound 104, (R)-6-bromo-1-(4-cyanobenzyl)-N-(1-(4-fluorophenyl)ethyl)-2-oxo-1,2-dihydro-1,8-naphthyridine-3-carboxamide], for which the IC50 at human CB2 receptor (setting [3]) is under 100 nM; on human recombinant CB1R (setting [4]) it was over 1000 nM.

One may read the IC50 as the concentration needed to halve the response being measured.
